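Interpolation was linear, between the two tested concentrations surrounding the appropriate level; five concentrations were tested over 48 hours in 96-well plates. GI50 is the concentration that inhibits growth by half.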 Active and inactive are the calls of the source. Cut-off read from the data, not from the text of the source: active = GI50 up to about 1.1 µM and inactive = higher. Where a SMILES comes first, the peptide text is derived from it. The star is where a group is joined. Cbz = O=C(OCc1ccccc1)*
What was measured:
Experiment in all cases: inhibition of tumour cell growth, NCI panel, 48 h
[1] = system: Malme-3M
[2] = system: COLO 205
[3] = system: A498
[4] = system: K562
[5] = system: Hs-578T
[6] = system: HL-60
[7] = system: SF-539
[8] = system: HCT-15
[9] = system: A549
[10] = system: SK-OV-3
[11] = system: T47D
[12] = system: CAKI-1
[13] = system: UACC-257
[14] = system: ACHN
[15] = system: RPMI-8226
[16] = system: HT-29
[17] = system: HCC 2998
[18] = system: SNB-19
[19] = system: OVCAR-4
[20] = system: NCI/ADR-RES

Compound	GI50 [1]	GI50 [2]	GI50 [3]	GI50 [4]	GI50 [5]	GI50 [6]	GI50 [7]	GI50 [8] [µM]	GI50 [9]	GI50 [10]	GI50 [11]	GI50 [12]	GI50 [13]	GI50 [14]	GI50 [15]	GI50 [16]	GI50 [17]	GI50 [18]	GI50 [19]	GI50 [20]
COc1ccc2c(N=[N+]=[N-])c(-c3ccccc3)c(=O)oc2c1	33.3 µM (inactive)	56.8 µM (inactive)	45.9 µM (inactive)	40 µM (inactive)	> 100 µM (inactive)	22.5 µM (inactive)	> 100 µM (inactive)	56.6	48.4 µM (inactive)	76.6 µM (inactive)	22.8 µM (inactive)	30.1 µM (inactive)	29.6 µM (inactive)	41.1 µM (inactive)	20.8 µM (inactive)	32.1 µM (inactive)	92.3 µM (inactive)	–	–	–
CC(=O)NC(NCCN)(c1ccccc1)c1ccccc1	> 100 µM (inactive)	> 100 µM (inactive)	59.4 µM (inactive)	> 100 µM (inactive)	> 100 µM (inactive)	> 100 µM (inactive)	> 100 µM (inactive)	> 100	> 100 µM (inactive)	> 100 µM (inactive)	–	–	> 100 µM (inactive)	> 100 µM (inactive)	> 100 µM (inactive)	> 100 µM (inactive)	> 100 µM (inactive)	> 100 µM (inactive)	> 100 µM (inactive)	> 100 µM (inactive)
O=C(CN1CCOCC1)c1ccc2c(c1)oc(=O)n2CCN1CCCCC1	> 100 µM (inactive)	> 100 µM (inactive)	> 100 µM (inactive)	> 100 µM (inactive)	7.8 µM (inactive)	> 100 µM (inactive)	> 100 µM (inactive)	> 100	–	> 100 µM (inactive)	–	> 100 µM (inactive)	> 100 µM (inactive)	> 100 µM (inactive)	> 100 µM (inactive)	> 100 µM (inactive)	–	> 100 µM (inactive)	–	> 100 µM (inactive)
Cc1n[nH]c(=O)n1/N=C/c1ccc([N+](=O)[O-])o1	4.65 µM (inactive)	8.59 µM (inactive)	22.1 µM (inactive)	8.02 µM (inactive)	–	–	19.1 µM (inactive)	7.01	16.7 µM (inactive)	28.2 µM (inactive)	19.5 µM (inactive)	7.8 µM (inactive)	13 µM (inactive)	10.9 µM (inactive)	15.7 µM (inactive)	12.9 µM (inactive)	20.6 µM (inactive)	31 µM (inactive)	16.7 µM (inactive)	17.4 µM (inactive)
COc1ccc(/C=C\c2cc(OC)c(OC)c(OC)c2)cc1OC(=O)NCCN(C)C	0.00284 µM (active)	0.215 µM (active)	0.000269 µM (active)	< 0.0001 µM (active)	0.000137 µM (active)	< 0.0001 µM (active)	0.000133 µM (active)	0.000132	0.00187 µM (active)	0.00339 µM (active)	–	0.0386 µM (active)	0.00839 µM (active)	0.000659 µM (active)	0.00014 µM (active)	0.526 µM (active)	0.0631 µM (active)	0.000178 µM (active)	0.00144 µM (active)	< 0.0001 µM (active)
O=C1OC(=O)c2cc(S(=O)(=O)c3ccc4c(c3)C(=O)OC4=O)ccc21	24.1 µM (inactive)	> 100 µM (inactive)	–	> 100 µM (inactive)	> 100 µM (inactive)	–	> 100 µM (inactive)	> 100	> 100 µM (inactive)	> 100 µM (inactive)	> 100 µM (inactive)	> 100 µM (inactive)	> 100 µM (inactive)	> 100 µM (inactive)	> 100 µM (inactive)	> 100 µM (inactive)	> 100 µM (inactive)	> 100 µM (inactive)	> 100 µM (inactive)	> 100 µM (inactive)
Nc1ccc(S(=O)(=O)Nc2nnc(S(N)(=O)=O)s2)cc1	> 100 µM (inactive)	> 100 µM (inactive)	> 100 µM (inactive)	–	–	> 100 µM (inactive)	> 100 µM (inactive)	> 100	> 100 µM (inactive)	> 100 µM (inactive)	> 100 µM (inactive)	> 100 µM (inactive)	–	> 100 µM (inactive)	> 100 µM (inactive)	> 100 µM (inactive)	> 100 µM (inactive)	> 100 µM (inactive)	> 100 µM (inactive)	> 100 µM (inactive)
CCOC(=O)CNC(=O)C(C)NC(=O)C(NC(=O)OCc1ccccc1)C(C)C (stereo not drawn) (Cbz-Val-Ala-Gly-OEt; configuration not given here)	> 100 µM (inactive)	> 100 µM (inactive)	–	48.1 µM (inactive)	> 100 µM (inactive)	–	> 100 µM (inactive)	> 100	> 100 µM (inactive)	> 100 µM (inactive)	–	> 100 µM (inactive)	> 100 µM (inactive)	> 100 µM (inactive)	> 100 µM (inactive)	> 100 µM (inactive)	90.2 µM (inactive)	> 100 µM (inactive)	–	> 100 µM (inactive)

Source: ChEMBL document CHEMBL1201862, “PubChem BioAssay data set” (2004)
